In one data set the test system is Huh-7. In words: cells. The conditions noted are these: Homo sapiens, Huh-7, 72 h.
In data set [1] the target is Fibroblast growth factor receptor 1 (Homo sapiens, UniProt P11362). In words: Inhibition of FGFR1 (unknown origin).
Data set [2] has as its target Fibroblast growth factor receptor 3 (Homo sapiens, UniProt P22607). As to the kind of experiment: Inhibition of FGFR3 (unknown origin).
Data set [3] deals with Fibroblast growth factor receptor 2 (Homo sapiens, UniProt P21802). As to the kind of experiment: Inhibition of FGFR2 (unknown origin).
Data set [4] has as its target T1, Fibroblast growth factor receptor 4 (Homo sapiens, UniProt P22455). As to the kind of experiment: Inhibition of N-terminal GST fusion tagged human FGFR4 cytoplasmic domain (460 to 802 end residues) expressed in baculovirus expression system at 1 nM preincubated for 10 mins followed by substrate addition and further incubated for 30 mins in presence of ATP at Km concentration by caliper mobility shift assay relative to control. The settings on record: time 40.0 min.
Target sequence in this assay (P22455 22-802 limits assumed): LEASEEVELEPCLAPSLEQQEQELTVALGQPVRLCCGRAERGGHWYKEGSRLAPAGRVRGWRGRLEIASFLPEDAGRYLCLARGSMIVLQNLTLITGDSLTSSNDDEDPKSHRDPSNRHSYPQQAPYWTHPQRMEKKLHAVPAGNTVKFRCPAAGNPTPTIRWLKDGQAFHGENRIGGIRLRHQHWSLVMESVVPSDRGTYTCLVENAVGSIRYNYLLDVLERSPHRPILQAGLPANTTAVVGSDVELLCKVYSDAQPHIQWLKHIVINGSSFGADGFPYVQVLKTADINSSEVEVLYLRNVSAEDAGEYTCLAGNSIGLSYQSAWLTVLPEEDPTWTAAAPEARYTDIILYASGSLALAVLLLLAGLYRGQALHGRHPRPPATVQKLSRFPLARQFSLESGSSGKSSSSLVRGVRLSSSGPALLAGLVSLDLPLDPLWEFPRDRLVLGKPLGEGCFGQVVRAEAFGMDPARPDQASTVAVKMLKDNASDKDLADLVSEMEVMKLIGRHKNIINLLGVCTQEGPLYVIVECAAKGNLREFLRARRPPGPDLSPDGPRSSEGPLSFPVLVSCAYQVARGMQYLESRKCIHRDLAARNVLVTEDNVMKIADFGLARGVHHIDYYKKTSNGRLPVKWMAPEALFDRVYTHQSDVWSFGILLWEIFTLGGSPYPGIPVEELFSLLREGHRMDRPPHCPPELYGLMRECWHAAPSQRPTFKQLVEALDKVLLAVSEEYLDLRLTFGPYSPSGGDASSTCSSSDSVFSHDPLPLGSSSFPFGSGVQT

For data set [5], the target named is T1, Fibroblast growth factor receptor 4.
Target sequence in this assay (P22455 whole entry, the tested form may be a part): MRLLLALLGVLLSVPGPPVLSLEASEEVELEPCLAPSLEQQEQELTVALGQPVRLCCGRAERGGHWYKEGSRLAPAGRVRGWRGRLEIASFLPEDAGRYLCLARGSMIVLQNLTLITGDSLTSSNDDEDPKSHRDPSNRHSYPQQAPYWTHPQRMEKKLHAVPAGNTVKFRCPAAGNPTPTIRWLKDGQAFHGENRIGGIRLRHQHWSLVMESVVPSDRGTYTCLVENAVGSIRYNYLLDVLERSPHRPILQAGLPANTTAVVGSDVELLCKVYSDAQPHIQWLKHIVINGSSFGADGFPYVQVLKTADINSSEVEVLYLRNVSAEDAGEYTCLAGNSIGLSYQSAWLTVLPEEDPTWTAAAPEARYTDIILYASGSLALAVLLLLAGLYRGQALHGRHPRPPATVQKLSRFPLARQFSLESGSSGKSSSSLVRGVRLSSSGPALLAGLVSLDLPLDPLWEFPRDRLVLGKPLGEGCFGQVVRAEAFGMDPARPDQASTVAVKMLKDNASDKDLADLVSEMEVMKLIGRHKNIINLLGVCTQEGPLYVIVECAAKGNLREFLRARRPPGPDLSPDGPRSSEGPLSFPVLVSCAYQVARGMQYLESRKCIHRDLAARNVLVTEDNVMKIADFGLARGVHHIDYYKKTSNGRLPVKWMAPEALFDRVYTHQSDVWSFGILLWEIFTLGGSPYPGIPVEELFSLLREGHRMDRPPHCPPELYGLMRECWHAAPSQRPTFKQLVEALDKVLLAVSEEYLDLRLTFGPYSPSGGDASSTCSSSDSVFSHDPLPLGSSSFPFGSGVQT
Description: Inhibition of FGFR4 (unknown origin)
A further data set concerns Hep 3B2. In words: Induction of apoptosis in human Hep3B cells assessed as increase in cleaved PARP level at 3 to 20 uM by Western blot analysis. The data set is classed as functional, cell-based. The conditions noted are these: dose 3-20 µM. (A western blot detects proteins with antibodies after separation by electrophoresis.)
A short description of data set [6]: Stability of the compound in rat liver microsomes assessed as parent compound remaining incubated for 60 mins in presence of NADPH by LC-MS analysis. The data set is classed as ADME, Microsome. The conditions noted are these: read-out: Stability. On the technique in general: Liver microsomes are vesicles of endoplasmic reticulum, rich in cytochrome P450 enzymes.

Data set [7] is described as follows: Stability of the compound in rat plasma assessed as parent compound remaining incubated for 60 mins. The format is ADME, cell-free. The conditions noted are these: read-out: Stability.

Active and inactive are the calls of the source. The calls are words filed in the database; no cut-off is given here.

Fibroblast growth factor receptor 1, sequence (P11362 whole entry): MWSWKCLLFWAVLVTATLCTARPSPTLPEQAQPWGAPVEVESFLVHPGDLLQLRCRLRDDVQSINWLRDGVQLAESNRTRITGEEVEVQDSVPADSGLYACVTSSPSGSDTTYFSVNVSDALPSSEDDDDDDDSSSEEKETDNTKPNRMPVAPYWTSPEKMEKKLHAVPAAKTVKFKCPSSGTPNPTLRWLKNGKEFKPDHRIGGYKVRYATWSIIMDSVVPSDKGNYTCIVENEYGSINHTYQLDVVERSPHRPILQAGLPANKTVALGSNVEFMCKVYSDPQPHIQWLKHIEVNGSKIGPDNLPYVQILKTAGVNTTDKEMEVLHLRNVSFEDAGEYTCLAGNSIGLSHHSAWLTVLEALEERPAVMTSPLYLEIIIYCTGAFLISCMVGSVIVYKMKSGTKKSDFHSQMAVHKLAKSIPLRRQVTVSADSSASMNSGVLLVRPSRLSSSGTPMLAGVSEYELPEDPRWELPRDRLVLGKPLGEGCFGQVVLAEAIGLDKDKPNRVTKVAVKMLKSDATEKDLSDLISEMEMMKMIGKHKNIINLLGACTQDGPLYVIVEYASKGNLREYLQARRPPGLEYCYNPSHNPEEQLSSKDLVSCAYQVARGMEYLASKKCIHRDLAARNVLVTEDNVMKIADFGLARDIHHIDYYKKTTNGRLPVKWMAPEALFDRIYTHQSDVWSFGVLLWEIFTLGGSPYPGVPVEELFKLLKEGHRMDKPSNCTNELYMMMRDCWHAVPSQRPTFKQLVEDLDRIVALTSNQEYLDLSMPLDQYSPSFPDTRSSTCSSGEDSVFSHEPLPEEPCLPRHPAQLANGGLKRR
Fibroblast growth factor receptor 3, sequence (P22607 whole entry): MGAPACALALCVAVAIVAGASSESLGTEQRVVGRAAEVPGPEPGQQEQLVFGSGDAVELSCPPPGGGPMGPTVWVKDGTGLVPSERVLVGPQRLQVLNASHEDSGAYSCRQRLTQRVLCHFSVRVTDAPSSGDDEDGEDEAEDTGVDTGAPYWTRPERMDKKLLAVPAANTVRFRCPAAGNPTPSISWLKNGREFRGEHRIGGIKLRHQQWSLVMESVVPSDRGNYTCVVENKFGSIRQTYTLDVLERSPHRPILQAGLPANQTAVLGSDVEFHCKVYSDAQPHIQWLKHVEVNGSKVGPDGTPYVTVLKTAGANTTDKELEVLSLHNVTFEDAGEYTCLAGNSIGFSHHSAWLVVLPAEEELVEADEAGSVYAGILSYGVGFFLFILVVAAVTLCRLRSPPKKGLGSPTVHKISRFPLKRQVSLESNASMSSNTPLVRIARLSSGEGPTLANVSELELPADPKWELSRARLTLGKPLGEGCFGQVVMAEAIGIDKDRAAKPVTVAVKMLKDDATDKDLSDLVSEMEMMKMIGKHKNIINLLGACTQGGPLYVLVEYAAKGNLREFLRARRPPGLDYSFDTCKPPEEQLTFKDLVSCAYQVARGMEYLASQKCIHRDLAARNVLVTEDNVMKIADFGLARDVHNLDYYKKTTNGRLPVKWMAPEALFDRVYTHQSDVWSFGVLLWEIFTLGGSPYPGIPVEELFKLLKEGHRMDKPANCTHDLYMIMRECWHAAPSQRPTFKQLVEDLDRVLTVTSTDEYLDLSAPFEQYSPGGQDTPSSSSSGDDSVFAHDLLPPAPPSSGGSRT
Fibroblast growth factor receptor 2, sequence (P21802 whole entry, the tested form may be a part): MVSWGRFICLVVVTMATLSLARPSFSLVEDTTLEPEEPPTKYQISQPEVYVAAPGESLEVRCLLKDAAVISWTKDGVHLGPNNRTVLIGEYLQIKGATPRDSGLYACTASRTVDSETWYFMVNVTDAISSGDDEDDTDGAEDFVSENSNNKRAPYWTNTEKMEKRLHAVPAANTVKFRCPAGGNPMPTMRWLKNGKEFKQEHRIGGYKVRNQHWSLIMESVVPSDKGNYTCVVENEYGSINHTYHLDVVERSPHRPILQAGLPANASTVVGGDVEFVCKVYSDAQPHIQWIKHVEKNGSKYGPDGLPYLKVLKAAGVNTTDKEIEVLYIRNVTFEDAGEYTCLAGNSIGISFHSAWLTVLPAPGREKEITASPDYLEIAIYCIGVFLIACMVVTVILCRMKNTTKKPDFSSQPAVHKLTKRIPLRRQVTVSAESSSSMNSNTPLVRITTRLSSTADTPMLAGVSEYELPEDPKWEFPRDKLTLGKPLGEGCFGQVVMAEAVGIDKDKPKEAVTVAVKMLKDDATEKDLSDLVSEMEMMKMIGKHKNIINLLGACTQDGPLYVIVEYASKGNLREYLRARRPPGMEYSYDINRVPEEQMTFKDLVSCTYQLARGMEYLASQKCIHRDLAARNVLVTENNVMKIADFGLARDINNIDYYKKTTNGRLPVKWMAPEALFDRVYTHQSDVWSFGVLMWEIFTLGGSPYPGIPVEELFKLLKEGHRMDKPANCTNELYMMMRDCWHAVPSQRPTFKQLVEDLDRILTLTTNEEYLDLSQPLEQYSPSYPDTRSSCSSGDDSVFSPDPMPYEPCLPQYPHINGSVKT
Description for Huh-7: Antiproliferative activity against human Huh-7 cells assessed as inhibition of cell proliferation measured after 72 hrs by SRB assay

In the data set with Huh-7, `C=CC(=O)Nc1cc(CCN2CCCC2CN2CCCC2)cc(C)c1Nc1ncc2cc(-c3c(Cl)c(OC)cc(OC)c3Cl)ccc2n1` (centres undefined) gave an IC50 of 3560 nM. That is a single-digit micromolar value.
As to `C=CC(=O)Nc1cc(SC)ccc1Nc1ncc2cc(-c3c(Cl)c(OC)cc(OC)c3Cl)ccc2n1`, the IC50 is 39 nM in [1], 936 nM in the data set on Huh-7, 79 nM in [2] and 24 nM in data set [3].
As to `C=CC(=O)Nc1cc(CCCN(C)C)cc(C)c1Nc1ncc2cc(-c3c(Cl)c(OC)cc(OC)c3Cl)ccc2n1`, the inhibition in [4] amounted to 55%. In addition, in the data set with Huh-7, the IC50 was determined as 2240 nM.
`C=CC(=O)Nc1cc(CCCN2CCCC2)cc(C)c1Nc1ncc2cc(-c3c(Cl)c(OC)cc(OC)c3Cl)ccc2n1`: 4260 nM corresponded to half-maximal inhibition with Huh-7 (IC50).
Same read-out and setting: with `C=CC(=O)Nc1cc(CCN2CCOCC2)cc(C)c1Nc1ncc2cc(-c3c(Cl)c(OC)cc(OC)c3Cl)ccc2n1` the figure was 13300 nM.
On the same count and under the same terms, with `C=CC(=O)Nc1cc(CCN2CCc3ccccc3C2)cc(C)c1Nc1ncc2cc(-c3c(Cl)c(OC)cc(OC)c3Cl)ccc2n1` the figure was 4450 nM.
Take `C=CC(=O)N[C@H]1CCOC[C@H]1Nc1ncc2cc(-c3c(Cl)c(OC)cc(OC)c3Cl)ccc2n1` [FISOGATINIB]: the IC50 in [2] amounted to 2200 nM; in [3], 1200 nM; in data set [5] it was 5 nM.
Turning to `C=CC(=O)Nc1cc(CCN(CC)CCC)cc(C)c1Nc1ncc2cc(-c3c(Cl)c(OC)cc(OC)c3Cl)ccc2n1`, the IC50 in the data set with Huh-7 was found to be 4330 nM.
Same read-out and setting: with `C=CC(=O)Nc1cc(CCN2CCCC2)cc(C)c1Nc1ncc2cc(-c3c(Cl)c(OC)cc(OC)c3Cl)ccc2n1` the figure was 4520 nM.
As for `C=CC(=O)Nc1cc(S(N)(=O)=O)cc(C)c1Nc1ncc2cc(-c3c(Cl)c(OC)cc(OC)c3Cl)ccc2n1`, in the data set with Hep 3B2, the result was Active. Moreover, the remaining at 1 h was 50% in data set [6] and 80% in data set [7]. Moreover, the IC50 in data set [1] was 787 nM; with Huh-7 it was 1670 nM; in data set [2], 3920 nM; in [3] it was 341 nM.
Turning to `C=CC(=O)Nc1cc(S(C)(=O)=O)cc(C)c1Nc1ncc2cc(-c3c(Cl)c(OC)cc(OC)c3Cl)ccc2n1`, the IC50 in [1] turned out to be 886 nM; in the data set with Huh-7, 1940 nM; in data set [2], 3870 nM; in data set [3], 379 nM.
In turn, `C=CC(=O)Nc1cc(CCN2CCN(C3COC3)CC2)cc(C)c1Nc1ncc2cc(-c3c(Cl)c(OC)cc(OC)c3Cl)ccc2n1` returned an IC50 in the data set on Huh-7 of 8480 nM.
In the case of `C=CC(=O)Nc1cc(CCN2CCN(C)CC2)cc(C)c1Nc1ncc2cc(-c3c(Cl)c(OC)cc(OC)c3Cl)ccc2n1`, the IC50 in the data set with Huh-7 amounted to 7140 nM.
Still for that read-out and setting: with `C=CC(=O)Nc1cc(S(=O)(=O)NC(=O)C=C)ccc1Nc1ncc2cc(-c3c(Cl)c(OC)cc(OC)c3Cl)ccc2n1` the figure was 4750 nM; with `C=CC(=O)Nc1cc(CCN2CCN(CCOC)CC2)cc(C)c1Nc1ncc2cc(-c3c(Cl)c(OC)cc(OC)c3Cl)ccc2n1`, 4180 nM.
Regarding `C=CC(=O)Nc1cccc(C)c1Nc1ncc2cc(-c3c(Cl)c(OC)cc(OC)c3Cl)ccc2n1`, the outcome in the data set on Hep 3B2 was Active. Also, the remaining at 1 h in [6] is 15%. In the data set with Huh-7, this compound returned an IC50 of 929 nM.
Take `C=CC(=O)Nc1cc(CCO)cc(C)c1Nc1ncc2cc(-c3c(Cl)c(OC)cc(OC)c3Cl)ccc2n1`: the IC50 in the data set on Huh-7 was determined as 2410 nM. That is a single-digit micromolar value.
With `C=CC(=O)Nc1cc(S(C)(=O)=O)ccc1Nc1ncc2cc(-c3c(Cl)c(OC)cc(OC)c3Cl)ccc2n1`, the IC50 was found to be 28 nM in [1], 2160 nM in the data set with Huh-7, 102 nM in [2] and 15 nM in [3].
Regarding `C=CC(=O)Nc1cc(CCN2CCC(NC(=O)OC(C)(C)C)CC2)cc(C)c1Nc1ncc2cc(-c3c(Cl)c(OC)cc(OC)c3Cl)ccc2n1`, in the data set with Huh-7, the IC50 worked out at 4480 nM.

Usually IC50 stands for the point on the concentration scale where inhibition reaches its midpoint. The low end stands for greater potency, the high end for weaker potency. The inhibition is the drop in the measured response relative to a control, in per cent.

Values taken from ChEMBL document CHEMBL4831525, “Design, synthesis and biological evaluation of quinazoline derivatives as potent and selective FGFR4 inhibitors” (Eur J Med Chem, 2021).
